Test results published in patent US20230039887A1, “COMPOSITIONS FOR TOPICAL TREATMENT OF RADIATION DERMATITIS” (priority 2021, published 2023).

How the values were obtained:
Assay type in all cases: cell-based
MT1F = experiment: qPCR gene expression in tissues treated topically, MT1F; settings: topical, without radiation exposure
Procedure: (§1) Next, changes in gene expression were measured in tissues treated topically with the formulations (without radiation exposure) using qPCR. This provides evidence that the CBD is being absorbed by the tissues. Five genes were examined: APOB, CSF2, IL24, MT1F, and MT1G.
(§2) Statistical significance was determined using unpaired t-test, P<0.05, N=3, and are indicated in bold. The results are provided in Table B in both linear fold change values (FC) and in percent change. It is noted that changes in gene expression in general were only seen in the treatments where CBD was used.

cells = experiment: MTT assay of cell viability after 24 hours topical application; parameters: cell viability: dose or concentration left out as unconfirmed
Procedure: Test materials were applied topically for 24 hours and an MTT assay was used to check the viability of cells.
The relative results are provided in the following Table A, with the untreated group defining 100% viability, and shown in FIG. 1. * indicates p≤0.05 and ** indicates p≤0.01 statistical significance after performing unpaired t-test.

IL24 = experiment: qPCR gene expression in tissues treated topically, IL24; settings: topical, without radiation exposure
Procedure: as §1, §2

CSF2 = experiment: qPCR gene expression in tissues treated topically, CSF2; settings: topical, without radiation exposure
Procedure: (§3) Next, changes in gene expression were measured in tissues treated topically with the formulations (without radiation exposure) using qPCR. […] Five genes were examined: APOB, CSF2, IL24, MT1F, and MT1G.
(§4) Statistical significance was determined using unpaired t-test, P<0.05, N=3, and are indicated in bold. The results are provided in Table B in both linear fold change values (FC) and in percent change.

APOB = experiment: qPCR gene expression in tissues treated topically, APOB; settings: topical, without radiation exposure
Procedure: as §3, §4

MT1G = experiment: qPCR gene expression in tissues treated topically, MT1G; settings: topical, without radiation exposure
Procedure: as §1, §2

C=C(C)[C@@H]1CCC(C)=C[C@H]1c1c(O)cc(CCCCC)cc1O [CBD, 2-[(1R,6R)-6-Isopropenyl-3-methylcyclohex-2-en-1-yl]-5-pentylbenzene-1,3-diol]
MT1F gene expression, % Δ (percent change) (MT1F; 1 mg/mL CBD): 147% | MT1F gene expression, % Δ (percent change) (MT1F; 10 mg/mL CBD): 40% | MT1F gene expression, % Δ (percent change) (MT1F; 30 mg/mL CBD): −65% | MT1F gene expression, % Δ (percent change) (MT1F; 60 mg/mL CBD): 134% | MT1F gene expression, % Δ (percent change) (MT1F; 120 mg/mL CBD): 602% | MT1F gene expression, % Δ (percent change) (MT1F; 250 mg/mL CBD): 2163% | MT1F gene expression, % Δ (percent change) (MT1F; 500 mg/mL CBD): 3963% | MT1F gene expression, % Δ (percent change) (MT1F; 750 mg/mL CBD): 2971% | cell viability (cells): significant increase | IL24 gene expression, % Δ (percent change) (IL24; 1 mg/mL CBD): 55% | IL24 gene expression, % Δ (percent change) (IL24; 10 mg/mL CBD): 48% | IL24 gene expression, % Δ (percent change) (IL24; 30 mg/mL CBD): −70% | IL24 gene expression, % Δ (percent change) (IL24; 60 mg/mL CBD): −11% | IL24 gene expression, % Δ (percent change) (IL24; 120 mg/mL CBD): 63% | IL24 gene expression, % Δ (percent change) (IL24; 250 mg/mL CBD): 59% | IL24 gene expression, % Δ (percent change) (IL24; 500 mg/mL CBD): −6% | IL24 gene expression, % Δ (percent change) (IL24; 750 mg/mL CBD): 54% | CSF2 gene expression, % Δ (percent change) (CSF2; 1 mg/mL CBD): 117% | CSF2 gene expression, % Δ (percent change) (CSF2; 10 mg/mL CBD): 118% | CSF2 gene expression, % Δ (percent change) (CSF2; 30 mg/mL CBD): −19% | CSF2 gene expression, % Δ (percent change) (CSF2; 60 mg/mL CBD): 186% | CSF2 gene expression, % Δ (percent change) (CSF2; 120 mg/mL CBD): 448% | CSF2 gene expression, % Δ (percent change) (CSF2; 250 mg/mL CBD): 763% | CSF2 gene expression, % Δ (percent change) (CSF2; 500 mg/mL CBD): −30% | CSF2 gene expression, % Δ (percent change) (CSF2; 750 mg/mL CBD): 93% | APOB gene expression, % Δ (percent change) (APOB; 1 mg/mL CBD): 23% | APOB gene expression, FC (linear fold change) (APOB; 1 mg/mL CBD): 1.23 | APOB gene expression, % Δ (percent change) (APOB; 10 mg/mL CBD): 0% | APOB gene expression, FC (linear fold change) (APOB; 10 mg/mL CBD): 1.00 | APOB gene expression, % Δ (percent change) (APOB; 30 mg/mL CBD): −16% | APOB gene expression, FC (linear fold change) (APOB; 30 mg/mL CBD): −1.19 | APOB gene expression, % Δ (percent change) (APOB; 60 mg/mL CBD): 51% | APOB gene expression, % Δ (percent change) (APOB; 120 mg/mL CBD): −9% | APOB gene expression, FC (linear fold change) (APOB; 120 mg/mL CBD): −1.10 | APOB gene expression, % Δ (percent change) (APOB; 250 mg/mL CBD): −60% | APOB gene expression, FC (linear fold change) (APOB; 250 mg/mL CBD): −2.48 | APOB gene expression, % Δ (percent change) (APOB; 500 mg/mL CBD): −96% | APOB gene expression, FC (linear fold change) (APOB; 500 mg/mL CBD): −22.22 | APOB gene expression, % Δ (percent change) (APOB; 750 mg/mL CBD): −96% | APOB gene expression, FC (linear fold change) (APOB; 750 mg/mL CBD): −25.64 | MT1G gene expression, % Δ (percent change) (MT1G; 1 mg/mL CBD): −41% | MT1G gene expression, % Δ (percent change) (MT1G; 10 mg/mL CBD): −4% | MT1G gene expression, % Δ (percent change) (MT1G; 30 mg/mL CBD): 92% | MT1G gene expression, % Δ (percent change) (MT1G; 60 mg/mL CBD): 2526% | MT1G gene expression, % Δ (percent change) (MT1G; 120 mg/mL CBD): 5186% | MT1G gene expression, % Δ (percent change) (MT1G; 250 mg/mL CBD): 13439% | MT1G gene expression, % Δ (percent change) (MT1G; 500 mg/mL CBD): 33439% | MT1G gene expression, % Δ (percent change) (MT1G; 750 mg/mL CBD): 23223%

Triton-X
Relative Viability (cells; positive control, topical 24 hours, untreated = 100%): 3%
